In patent US20230100235A1, “ANTICANCER AGENT COMPOSITION” (CARNA BIOSCIENCES, INC., priority 2020, published 2023):

Test system: BTK-C481S-mutant OCI-Ly10 cells
Test: Combined effect by BLISS score, BTK-C481S-mutant OCI-Ly10
Type: cell-based, Human
Conditions: combination with venetoclax, positive = synergistic
Method: After 96 hours of culture, an Alamar Blue reagent was added, and 3 hours later, fluorescence of excitation wavelength 560 nm/fluorescence wavelength 590 nm was measured. Cell proliferation inhibition rate and viability (100−inhibition rate %) were determined by setting a compound-free and cell-free well as 100% and a compound-free and cell-containing well as 0%.
BTK-C481S-mutant OCI-Ly10 cells were produced by point mutation knock-in using the CRISPR-Cas9 system. Cas9 protein (Thermo Fisher Scientific Inc.), guide RNA prepared with GeneArt™ Precision gRNA Synthesis Kit (Thermo Fisher Scientific Inc.), and a single-stranded synthetic oligonucleotide to replace 481st cysteine residue of BTK with a serine residue were introduced into OCI-Ly10 cells by an electroporation method. The resulting modified OCI-Ly10 cells were cultured in the presence of ibrutinib, and the grown cells were used as BTK-C481S-mutant OCI-Ly10 cells. Transduction of the mutation was confirmed by genomic DNA and mRNA sequence analysis.
The BLISS score was calculated in the same manner as in Example 1.

With `Nc1nc(-c2cccc(-n3ccc4cc(C5CC5)cc(F)c4c3=O)c2CO)c2cc(C3=CCN(C4COC4)CC3)[nH]c2n1` [Compound (I-A), 2-(3-{2-amino-6-[1-(oxetan-3-yl)-1,2,3,6-tetrahydropyridin-4-yl]-7H-pyrrolo[2,3-d]pyrimidin-4-yl}-2-(hydroxymethyl)phenyl)-6-cyclopropyl-8-fluoroisoquinolin-1(2H)-one] the BLISS score was “positive values”.
